Reference: patent US20160213777A1, “Novel Delivery Compositions and Methods of Using Same” (THOMAS JEFFERSON UNIVERSITY, priority 2013, published 2016)

Experiments:
[1] = in water; cited from earlier work
A549 cells [2] = test: Cytotoxicity MTT assay of siRNA/nanoparticle formulations and erlotinib; format: cell-based
Experimental: MTT assay was used to determine the effect of siG12S loaded nanoparticles on the proliferation of A549 cells. Chemosensitivity of siG12S-treated cells to erlotinib was also assessed. Cells (1×10^4 per well) were seeded in 96 well plates and incubated at 37° C. in a humidified atmosphere with 5% carbon dioxide for 24 h. The cells were then treated with different formulations of nanoparticles, siG12S and erlotinib. Cells were incubated for 72 h. 10 μL of 12 Mm MTT reagent were then added to each well. This was then incubated at 37° C. for 4 h. The medium was aspirated and 50 μL of sterile DMSO was added to each well and mixed thoroughly with pipet. The cells were then incubated at 37° C. for 10 min. The plate was read at 540 and 650 nm.

[3] = Far-UV circular dichroism, secondary structure estimated with K2D2; format: physicochemical; conditions: bevacizumab particles reconstituted in acetate buffer; K2D2 estimate
Experimental: CD measurements were performed with Jasco J-810 Spectropolarimeter (Jasco, Md., USA) operating at 20° C. using 0.5 mg/ml of reconstituted solutions of IgG nanoparticles in acetate buffer. CD spectra were obtained in the far UV region (260-190 nm) using a quartz cell of 0.1 path length in order to probe the stability of the secondary structure of the manufactured nanoparticles. A scanning speed of 50 nm/min with a 0.5-second response time was applied followed by five accumulations for each sample. The experiment was repeated in triplicate for each sample. Surfactants dissolved in the acetate buffer at corresponding concentrations were used as blanks. Signals from blanks were subtracted from sample signals. The CD signals were converted to mean residue weight ellipticity and the percentage of the secondary structure retained was estimated using the K2D2 software.
Far UV CD was used to probe for perturbations in the secondary structure of the antibodies following reconstitution in acetate buffer (pH 6). This was done to test whether the secondary structure of the antibodies was still intact, as major perturbation in the secondary structure of proteins may lead to loss or reduction of biological activity.

[4] = Photon correlation spectroscopy (PCS): particle size and zeta potential, bevacizumab nanoparticles; format: physicochemical; conditions: 5 mg/ml bevacizumab solution
Experimental: Particle size (by intensity) and zeta potential measurements were performed by PCS using Zetasizer Nano ZS (Malvern Instruments, U.K.). The pellets formed after centrifugation at 6,500 rpm for 5 min were thoroughly rinsed and resuspended in deionized water by vortexing. The samples were then sonicated for approximately 5 min. Intensity autocorrelation was measured at a scattering angle (θ) of 173° at 25° C. The Z-average and polydispersity index (PDI) were recorded in triplicate. For zeta potential measurement, the samples were loaded into a universal dip cell (Malvern Instruments, U.K.) before recording the zeta potential in triplicate.
The surfactants seemed to have a concentration-dependent influence on the size and zeta potential of the nanoparticles. […] According to the Manufacturer's Manual, PCS is based on Brownian motion and particles with size above 10 μm tend to quickly sediment. In certain embodiments, under these circumstances, size recorded by the instrument may be due to artifact. […] For surfactant controls, distinct concentrations of the surfactants used in the nanoprecipitation process were dissolved in 0.01 N HCl and titrated with 0.1 N NaOH up to pH 8.4. In the case of nanoparticles, an increase in size was observed as the concentration of the non-ionic surfactant in the precipitation medium increased.

A549 cells [5] = test: Cytotoxicity MTT assay of bevacizumab particles; format: cell-based; conditions: 72 h
Experimental: Cells (1×10^4 cells/well) were seeded in 96 well plates and incubated at 37° C. in a humidified air atmosphere with 5% carbon dioxide for 48 h. […] At the end of incubation (after 72 h), MTT reagent was added to each well and incubated for 3 h.
The medium was aspirated, and 100 μL of DMSO was added. The plate was read at 560 nm. Cells treated with DMSO and relevant surfactants were used as a control.
The control contained the appropriate concentrations of the relevant surfactant. (FIGS. 16-18).

A549 cells [6] = test: Uptake/internalization of FITC-labeled bevacizumab particles (flow cytometry, fluorescence microscopy); format: cell-based; conditions: 100 μg/mL FITC-labeled particles, 60 min
Experimental: (§1) A549 and MRC-5 cells (2×10^4 cells/well) were seeded in 8 well coated glass slides and incubated for 48 h. […] Cells were washed with PBS, fixed with 2% paraformaldehyde, and incubated at room temperature for 20 min. PBS washed cells were then blocked with 5% BSA for 30 min at room temperature. Cells were stained with AlexaFluoro-555 labeled wheat germ agglutinin (WGA) and 4′,6-diamidino-2-phenylindole (DAPI) to visualize plasma membrane and nucleus respectively. Cells were mounted and observed under a Leica DMI 6000B fluorescence microscope (Leica Microsystems, Exton, Pa.).
About 1 million cells/well were seeded in a 12 well plate and incubated for 48 h. […] The cells were trypsinized and centrifuged at 300 g for 5 min, and the pellet was washed and resuspended in 0.4% trypan blue (TB) solution in PBS to quench the extracellular FITC fluorescence. TB, while quenching the FITC fluorescence of non-internalized particles, causes them to fluoresce red whereas an internalized particle will fluoresce green. […] The samples were then analyzed by flow cytometry (BDFACS caliber). 10,000 cells were measured in each sample.
Mean fluorescence intensity obtained from this experiment was compared to that obtained when the A549 cells were treated with 100 μg/mL FITC-labeled bavacizumab nanoparticles alone. […]

MRC-5 cells = test: as above; format: cell-based; conditions: 100 μg/mL FITC-labeled particles, 60 min
Experimental: as §1
About 1 million cells/well were seeded in a 12 well plate and incubated for 48 h. […] The cells were trypsinized and centrifuged at 300 g for 5 min, and the pellet was washed and resuspended in 0.4% trypan blue (TB) solution in PBS to quench the extracellular FITC fluorescence. TB, while quenching the FITC fluorescence of non-internalized particles, causes them to fluoresce red whereas an internalized particle will fluoresce green. […] The samples were then analyzed by flow cytometry (BDFACS caliber). 10,000 cells were measured in each sample. […]
A549 and MRC-5 cell lines were incubated with FITC-labeled nanoparticles for 15 and 60 minutes. The cells were then washed with D-PBS and extracellular florescence was quenched with trypan blue so that only internalized cells were analyzed. 10,000 cells were measured in each sample.

[7] = Scanning electron microscopy (SEM) particle size estimate; format: physicochemical
Excerpt: The morphology of the manufactured nanoparticles and the unprocessed IgG was observed by scanning electron microscopy using the Zeiss Supra 50VP system (Zeiss, Germany). Powders were mounted onto aluminum stubs using double sided adhesive tape and were made electrically conductive by coating in a thin layer of gold. The coated samples were then examined under microscope operated at an acceleration voltage of 5 kV.

serum nuclease = test: siRNA stability in serum (50% FBS, gel electrophoresis); format: in vitro ADME; conditions: 37° C., up to 48 h
Experimental: IgG-poloxamer-188 nanoparticles (IP-nanoparticles) loaded with siG12S, IgG nanoparticles loaded with siG12S and naked siG12S were incubated in F12K medium containing 50% FBS at 37° C. Aliquots of 5 μl samples were taken at time points up to 48 h. Samples were immediately mixed with 2% SDS, and 5 μl TBE urea sample buffer. The mixture was then heated at 70° C. for 3 minutes in order to deactivate the nuclease enzyme in the serum. The integrity of the siRNA was then analyzed using 15% TBE-ureal gel. siRNA bands were visualized by ethidium bromide staining.
Serum stability was assessed by incubating the naked siRNA and siRNA-loaded nanoparticles in 50% serum and the integrity of the siRNA assessed using gel electrophoresis at different time points. FIG. 41 illustrates the finding that naked siRNA was intact immediately after incubation but degraded after 1 h. In contrast, siRNA in IP nanoparticles was intact after 48 h. siRNA in IgG-nanoparticles was also intact up to 24 h. However, IgG-nanoparticles were not able to protect the siRNA after 24 h.

KRAS = test: In vitro gene silencing, western blot analysis; format: cell-based; conditions: A549 cells, 50 nM siRNA, 96 h
Experimental: A549 cells were transfected 24 h after seeding in a 6-well plate at density of 2×10^5/well. Naked siG12S and control siRNA (Thermal Scientific, Amarillo, Tex.) were transfected with lipofectamine RNAimax transfection reagent (Invitrogen). siRNA-loaded IP and IgG nanoparticles were incubated with the cells at 37° C. in a humidified air environment with 5% carbon dioxide for 96 h. The total concentration of siRNA used in all experiments was 50 nM.
Cells were washed twice with ice-cold PBS and then lysed in M-Per mammalian lysis buffer (Thermo Scientific). The protein concentration of the lysates was determined with the Bradford reagent (Bio Rad), and equal amounts of protein were subjected to SDS-PAGE using a 10% gel. Separated proteins were transferred to a nitrocellulose membrane, which was then exposed to 5% nonfat dried milk in TBS containing 0.1% Tween 20 (0.1% TBST) for 1 h at room temperature and incubated overnight at 4° C. with antibodies against KRAS (Abcam, Cambridge, Mass.) or actin (Sigma). The membranes were then washed with 0.1% TBST before being incubated with horseradish peroxidase-conjugated goat antibodies to rabbit (Santa Cruz Biotechnology). Immune complexes were detected with chemiluminescence reagents (Perkin-Elmer Life Science).

IL-6 = test: Immunogenicity and inflammatory reaction in murine macrophages (ELISA); format: cell-based; conditions: RAW 264.7, 24 h
Experimental: (§2) RAW 264.7 murine macrophage cells were seeded in a 96 well plate at a density of 1.5×10^5/well at 37° C. in humidified air with 5% carbon dioxide for 24 h. The cells were then treated with 100 μg/mL of LPS, naked siG12S, siG12S-loaded IP-nanoparticles, siG12S-loaded IgG-nanoparticles and culture medium seperately for 24 h. TNF-α and IL-6 concentrations in supernatant from cultured cells were analyzed using the respective ELISA kit according to the manufacturer's instructions.

TNF-α = test: as above; format: cell-based; conditions: RAW 264.7, 24 h
Experimental: as §2

## Polyoxyethylene (80) sorbitan monooleate [Tween 80]
[1]
  critical micelle concentration (CMC): 0.0017%

## C#Cc1cccc(Nc2ncnc3cc(OCCOC)c(OCCOC)cc23)c1 [erlotinib]
A549 cells [2]; alone or with siG12S (50 nM)-loaded IP nanoparticles
  sensitivity of A549 cells to erlotinib: resistant

## Polyoxyethylene (20) sorbitan monolaurate [Tween 20]
[1]
  critical micelle concentration (CMC): 0.0075%

## bevacizumab [Unprocessed bevacizumab]
[3]
  % alpha helix: 7.52%
  % β-sheet: 32.19%
[4]
  Zeta potential (mV): −4.6 ± 0.3 mV
A549 cells [5]
  IC50: ~1.8 µM
A549 cells [6]
  internalization by A549 cells: not internalized
MRC-5 cells
  internalization by MRC-5 cells: not internalized
[7]
  particle size estimated from SEM: approximately 20 μm

## polyethylene glycol monooleyl ether [Brij 97]
[1]
  critical micelle concentration (CMC): 0.029%

## naked siG12S: siRNA against mutated KRAS G12S; sense GUUGGAGCUAGUGGCGUAGdTdT (SEQ ID NO:1), antisense SEQ ID NO:2 (sense GUUGGAGCUAGUGGCGUAGNN; antisense CUACGCCACUAGCUCCAACNN; dTdT overhangs, chemistry not fully specified)
Serum nuclease
  time siRNA remained intact in serum: < 1 h
KRAS
  KRAS expression (knockdown): major reduction in KRAS expression
A549 cells [2]; 50 nM siRNA, 72 h
  growth of A549 cells: did not inhibit the growth
IL-6
  production of IL-6: upgraded the production
TNF-α
  production of TNF-α: upgraded the production
